Laboratory results reported in ChEMBL document CHEMBL5316329, “Structure-Based Optimization of 2,4,5-Trisubstituted Pyrimidines as Potent HIV-1 Non-Nucleoside Reverse Transcriptase Inhibitors: Exploiting the Tolerant Regions of the Non-Nucleoside Reverse Transcriptase Inhibitors' Binding Pocket” (J Med Chem, 2023).

Columns and labels:
[1] = test system: Human immunodeficiency virus 1; test: Antiviral activity against wild-type HIV-1 IIIB infected in human MT4 cells assessed as virus-induced cytopathicity treated for 5 days by MTT assay; assay type: functional, organism-based; details: Human immunodeficiency virus 1, IIIB, MT4, 120 h
[2] = test system: Human immunodeficiency virus 1; test: Antiviral activity against NNRTI-resistant HIV-1 RES056 infected in human MT4 cells assessed as virus-induced cytopathicity treated for 5 days by MTT assay; assay type: functional, organism-based; details: Human immunodeficiency virus 1, RES056, MT4, 120 h
[3] = Cytotoxicity against human MT4 cells assessed as reduction in cell viability treated for 5 days by MTT assay; assay type: toxicity, cell-based; details: time 5 day
[4] = Selectivity index, ratio of CC50 for human MT4 cells to EC50 for wild-type HIV-1 IIIB infected in human MT4 cells; assay type: toxicity, cell-based; details: read-out: Selectivity Index
[5] = Selectivity index, ratio of CC50 for human MT4 cells to EC50 for NNRTI-resistant HIV-1 RES056 infected in human MT4 cells; assay type: toxicity, cell-based; details: read-out: Selectivity Index
[6] = target: Human immunodeficiency virus type 1 reverse transcriptase (Human immunodeficiency virus 1, UniProt Q72547); test: Inhibition of wild-type HIV-1 reverse transcriptase assessed as inhibition of biotin-dUTP incorporation
[7] = test system: Human immunodeficiency virus 1; test: Antiviral activity against HIV-1 harboring L100I mutant infected in human MT4 cells assessed as virus-induced cytopathicity treated for 5 days by MTT assay; assay type: functional, organism-based; details: Human immunodeficiency virus 1, MT4, 120 h; read-out: EC50
[8] = test system: Human immunodeficiency virus 1; test: Antiviral activity against HIV-1 harboring K103N mutant infected in human MT4 cells assessed as virus-induced cytopathicity treated for 5 days by MTT assay; assay type: functional, organism-based; details: Human immunodeficiency virus 1, MT4, 120 h; read-out: EC50
[9] = test system: Human immunodeficiency virus 1; test: Antiviral activity against HIV-1 harboring Y181C mutant infected in human MT4 cells assessed as virus-induced cytopathicity treated for 5 days by MTT assay; assay type: functional, organism-based; details: Human immunodeficiency virus 1, MT4, 120 h; read-out: EC50
[10] = test system: Human immunodeficiency virus 1; test: Antiviral activity against HIV-1 harboring Y188L mutant infected in human MT4 cells assessed as virus-induced cytopathicity treated for 5 days by MTT assay; assay type: functional, organism-based; details: Human immunodeficiency virus 1, MT4, 120 h; read-out: EC50
[11] = test system: Human immunodeficiency virus 1; test: Antiviral activity against HIV-1 E138K mutant infected in human MT4 cells assessed as virus-induced cytopathicity treated for 5 days by MTT assay; assay type: functional, organism-based; details: Human immunodeficiency virus 1, MT4, 120 h; read-out: EC50
[12] = test system: Human immunodeficiency virus 1; test: Antiviral activity against HIV-1 F227L/V106A mutant infected in human MT4 cells assessed as virus-induced cytopathicity treated for 5 days by MTT assay; assay type: functional, organism-based; details: Human immunodeficiency virus 1, MT4, 120 h; read-out: EC50

SMILES | EC50 [1] [nM] | EC50 [2] [nM] | CC50 at 120 h [3] [nM] | selectivity ratio [4] | selectivity ratio [5] | IC50 [6] [nM] | EC50 [7] [nM] | EC50 [8] [nM] | EC50 [9] [nM] | EC50 [10] [nM] | EC50 [11] [nM] | EC50 [12] [nM]
Cc1cc(/C=C/C#N)cc(C)c1Oc1nc(NC2CCN(Cc3ccc(S(C)(=O)=O)cc3)CC2)ncc1-c1ccccc1F | 6.81 | 183 | 11600 | 1710 | 63 | 161 |  |  |  |  |  | 
Cc1cc(/C=C/C#N)cc(C)c1Oc1nc(NC2CCN(Cc3ccc(S(N)(=O)=O)cc3)CC2)ncc1-c1ccc(N)cc1 | 3.64 | 23.4 | 3810 | 1050 | 185 | 97 | 3.23 | 3.85 | 5.37 | 24.9 | 8.93 | 9.02
Cc1cc(/C=C/C#N)cc(C)c1Oc1nc(NC2CCN(Cc3ccc(S(C)(=O)=O)cc3)CC2)ncc1-c1ccccc1N | 5.89 | 109 | 5110 | 868 | 47 | 178 |  |  |  |  |  | 
Cc1cc(/C=C/C#N)cc(C)c1Oc1nc(NC2CCN(Cc3ccc(S(N)(=O)=O)cc3)CC2)ncc1-c1ccccc1N | 5.76 | 91 | 5490 | 953 | 60 | 159 |  |  |  |  |  | 
CC(=O)c1ccc(-c2cnc(NC3CCN(Cc4ccc(C(N)=O)cc4)CC3)nc2Oc2c(C)cc(/C=C/C#N)cc2C)cc1 | 5.16 | 55.5 | 11100 | 2160 | 201 | 175 |  |  |  |  |  | 
Cc1cc(/C=C/C#N)cc(C)c1Oc1nc(NC2CCN(Cc3ccc(S(N)(=O)=O)cc3)CC2)ncc1-c1ccccc1O | 9.15 | 172 | 12500 | 1370 | 72 | 205 |  |  |  |  |  | 
Cc1cc(/C=C/C#N)cc(C)c1Oc1nc(NC2CCN(Cc3ccc(S(C)(=O)=O)cc3)CC2)ncc1-c1cccc(F)c1 | 7.26 | 123 | 6650 | 916 | 54 | 228 |  |  |  |  |  | 
Cc1cc(/C=C/C#N)cc(C)c1Oc1nc(NC2CCN(Cc3ccc(C(N)=O)cc3)CC2)ncc1-c1cccc(F)c1 | 6.11 | 113 | 11300 | 1850 | 100 | 163 |  |  |  |  |  | 
Cc1cc(/C=C/C#N)cc(C)c1Oc1nc(NC2CCN(Cc3ccc(S(C)(=O)=O)cc3)CC2)ncc1-c1cccc(O)c1 | 5.76 | 68 | 4350 | 756 | 64 | 164 |  |  |  |  |  | 
Cc1cc(/C=C/C#N)cc(C)c1Oc1nc(NC2CCN(Cc3ccc(S(C)(=O)=O)cc3)CC2)ncc1-c1ccc2c(c1)OCO2 | 5.53 | 59 | 4290 | 776 | 73 | 161 |  |  |  |  |  | 
Cc1cc(/C=C/C#N)cc(C)c1Oc1nc(NC2CCN(Cc3ccc(S(C)(=O)=O)cc3)CC2)ncc1-c1ccc(F)cc1 | 5.09 | 101 | 4340 | 853 | 43 | 145 |  |  |  |  |  | 
Cc1cc(/C=C/C#N)cc(C)c1Oc1nc(NC2CCN(Cc3ccc(S(C)(=O)=O)cc3)CC2)ncc1-c1ccc(O)cc1 | 5.67 | 50.9 | 5410 | 956 | 106 | 97 |  |  |  |  |  | 
Cc1cc(/C=C/C#N)cc(C)c1Oc1nc(NC2CCN(Cc3ccc(S(N)(=O)=O)cc3)CC2)ncc1-c1cccc(F)c1 | 9.55 | 132 | 14200 | 1490 | 108 | 194 |  |  |  |  |  | 
Cc1cc(/C=C/C#N)cc(C)c1Cc1nc(NC2CCN(Cc3ccc(S(C)(=O)=O)cc3)CC2)ncc1-c1cnc(N)nc1 | 4.16 | 29.8 | 1730 | 416 | 58 | 108 |  |  |  |  |  | 
Cc1cc(/C=C/C#N)cc(C)c1Oc1nc(NC2CCN(Cc3ccc(C(N)=O)cc3)CC2)ncc1-c1ccccc1N | 4.4 | 49.3 | 11700 | 2680 | 239 | 122 |  |  |  |  |  | 
